{
  "source": "patent US11001595B2",
  "about": "“Pyrimidine compounds and pyrimido indole compounds and methods of use” (Duquesne University of the Holy Spirit, priority 2014, dated 2021)",
  "key": {"recombinant pjDHFR": {"molecular_target": "recombinant pjDHFR (Pneumocystis jirovecii (Human pneumocystis pneumonia agent), UniProt Q9UUP5)", "assay": "Inhibition of recombinant pjDHFR", "assay_type": "biochemical", "conditions": "37° C., 18 μM dihydrofolic acid"}, "[1]": {"tested_on": "βIII Overexpressing HeLa cells", "assay": "Antiproliferative effect, βIII overexpressing HeLa, SRB assay (Section E)", "assay_type": "cell-based, human", "conditions": "for Rr: IC50 of β-III overexpressing HeLa divided by IC50 of parental HeLa; for IC50: SRB assay, read-out: IC50 ± SD βIII Overexpressing HeLa"}, "Wild type HeLa cells": {"tested_on": "Wild type HeLa cells", "assay": "Antiproliferative effect, wild type HeLa, SRB assay (Section E)", "assay_type": "cell-based, human", "conditions": "read-out: IC50 ± SD Wild type HeLa"}, "[2]": {"tested_on": "NCl/ADR-RES cells (Pgp overexpressing)", "assay": "Antiproliferative effect, Pgp overexpressing NCI/ADR-RES, SRB assay (Section E)", "conditions": "for Rr: IC50 of Pgp overexpressing line divided by IC50 of parental OVCAR-8; for IC50: read-out: IC50 ± SD Pgp Overexpressing NCl/ADR-RES"}, "OVCAR-8 cells": {"tested_on": "OVCAR-8 cells", "assay": "Antiproliferative effect, parental OVCAR-8, SRB assay (Section E)", "assay_type": "cell-based, human"}, "[3]": {"tested_on": "microtubules in A-10 cells", "assay": "Microtubule depolymerization in A-10 cells (Section A)", "assay_type": "cell-based", "conditions": "Table 4, unit of column head (CA-4 row)"}, "MDA-MB-435 cells": {"tested_on": "MDA-MB-435 cells", "assay": "Inhibition of cell proliferation, MDA-MB-435 (Section A)", "assay_type": "cell-based, human", "conditions": "Table 4; read-out: IC50 ± SD in MDA-MB-435 Cells"}, "[4]": {"tested_on": "HeLa WTβ-III cells (β-III tubulin expressing)", "assay": "Effect of β-III tubulin on drug sensitivity, HeLa WT β-III (Section A)", "assay_type": "cell-based", "conditions": "for Rr: Table 6, relative resistance HeLa WTβ-III vs HeLa"}, "HeLa cells [5]": {"tested_on": "HeLa cells", "conditions": "Table 3, parental line; cited from earlier work"}, "SK-OV-3 cells [6]": {"tested_on": "SK-OV-3 cells", "conditions": "Table 2, parental line; cited from earlier work"}, "[7]": {"tested_on": "SK-OV-3 MDR-1-6/6 cells (P-gp expressing)", "conditions": "cited from earlier work"}, "[8]": {"tested_on": "HeLa WTβ-III cells (β-III tubulin expressing)", "conditions": "cited from earlier work"}, "HeLa cells [9]": {"tested_on": "HeLa cells", "assay": "Drug sensitivity in HeLa cells (Section A)", "assay_type": "cell-based", "conditions": "Homo sapiens, Table 6, parental line, read-out: IC50 ± SD in HeLa"}, "[10]": {"tested_on": "SK-OV-3 MDR-1-6/6 cells (P-gp expressing)", "conditions": "Table 5, relative resistance SK-OV-3 MDR-1-6/6 vs SK-OV-3"}, "SK-OV-3 cells [11]": {"tested_on": "SK-OV-3 cells", "assay": "Drug sensitivity in parental SK-OV-3 cells (Section A)", "assay_type": "cell-based", "conditions": "Homo sapiens, Table 5, parental line"}},
  "note": "Like-named read-outs stand apart in the source and are kept apart here.",
  "data": [
    {"smiles": "COc1cc(NCc2ccc3nc(N)nc(N)c3c2C)cc(OC)c1OC", "note": "[TMQ, Trimetrexate]", "values": [
      {"measurement": "IC50", "setting": "recombinant pjDHFR", "value": 2.1, "unit": "nM"}
    ]},
    {"smiles": "COc1ccc(/C=C\\c2cc(OC)c(OC)c(OC)c2)cc1O", "note": "[CA-4, combretastatin A-4]", "values": [
      {"measurement": "Rr", "setting": "[1]", "value": 1.38},
      {"measurement": "IC50", "setting": "[1]", "value": "2.5 ± 0.7", "unit": "nM"},
      {"measurement": "IC50", "setting": "Wild type HeLa cells", "value": "1.8 ± 0.4", "unit": "nM"},
      {"measurement": "Rr", "setting": "[2]", "value": 1.5},
      {"measurement": "IC50", "setting": "[2]; SRB assay", "value": "9 ± 2", "unit": "nM"},
      {"measurement": "IC50", "setting": "OVCAR-8 cells; read-out: IC50 ± SD Parental OVCAR-8", "value": "6 ± 0.7", "unit": "nM"},
      {"measurement": "EC50", "setting": "[3]", "value": 9.8, "unit": "nM"},
      {"measurement": "IC50", "setting": "MDA-MB-435 cells", "value": "4.4 ± 0.46", "unit": "nM"},
      {"measurement": "Rr", "setting": "[4]", "value": 1}
    ]},
    {"smiles": "COc1ccc(/C=C\\c2cc(OC)c(OC)c(OC)c2)cc1OP(=O)(O)O", "note": "[CA4P, combretastatin A-4 phosphate]", "values": [
      {"measurement": "IC50", "setting": "HeLa cells [5]", "value": "4.7 ± 0.2", "unit": "nM"},
      {"measurement": "IC50", "setting": "SK-OV-3 cells [6]", "value": "4.5 ± 0.2", "unit": "nM"},
      {"measurement": "Rr", "setting": "[7]; Table 2, relative resistance SK-OV-3 MDR-1-6/6 vs SK-OV-3", "value": 1.5},
      {"measurement": "IC50", "setting": "[7]; read-out: SK-OV-3 MDR-1-6/6 IC50, Table 2, P-gp expressing line", "value": "6.6 ± 1.3", "unit": "nM"},
      {"measurement": "Rr", "setting": "[8]; Table 3, relative resistance WT β-III vs HeLa", "value": 1.2},
      {"measurement": "IC50", "setting": "[8]; Table 3, β-III tubulin expressing line, read-out: WT β-III IC50", "value": "5.7 ± 0.4", "unit": "nM"}
    ]},
    {"smiles": "CC(=O)O[C@H]1C(=O)[C@@]2(C)[C@H]([C@H](OC(=O)c3ccccc3)[C@]3(O)C[C@H](OC(=O)[C@H](O)[C@@H](NC(=O)c4ccccc4)c4ccccc4)C(C)=C1C3(C)C)[C@]1(OC(C)=O)CO[C@@H]1C[C@@H]2O", "note": "[Paclitaxel]", "values": [
      {"measurement": "IC50", "setting": "[1]; Homo sapiens, HeLa", "value": "16 ± 1", "unit": "nM"},
      {"measurement": "Rr", "setting": "[1]", "value": 3.01},
      {"measurement": "IC50", "setting": "HeLa cells [9]", "value": "2.8 ± 0.36", "unit": "nM"},
      {"measurement": "IC50", "setting": "Wild type HeLa cells; Homo sapiens, HeLa", "value": "5.3 ± 2", "unit": "nM"},
      {"measurement": "IC50", "setting": "[2]; Homo sapiens, NCI/ADR-RES", "value": 5000, "unit": "nM"},
      {"measurement": "Rr", "setting": "[2]", "value": 500},
      {"measurement": "IC50", "setting": "OVCAR-8 cells; Homo sapiens, OVCAR-8, read-out: IC50 ± SD Parental OVCAR-8", "value": 10, "unit": "nM"},
      {"measurement": "IC50", "setting": "[4]; Homo sapiens, HeLa, Table 6, β-III tubulin expressing line, read-out: IC50 ± SD in HeLa WTβ-III", "value": "24 ± 3", "unit": "nM"},
      {"measurement": "Rr", "setting": "[4]", "value": 8.6},
      {"measurement": "Rr", "setting": "[10]", "value": 240},
      {"measurement": "IC50", "setting": "SK-OV-3 cells [11]", "value": "5 ± 0.6", "unit": "nM"}
    ]}
  ]
}
